“Also recorded” adds a separate entry of the source. Read-outs that look alike come from different tables or passages of the source.
Assays:
[1] = test system: human iPSC-derived 3D BrainSpheres; assay: BrainSphere MEA assay (HD-MEA, 13-day exposure, concentration-response); format: cell-based; conditions: for EC (benchmark response 1.349 SD) / AC50: Homo sapiens; for EC (benchmark response 1.349 SD): 312 h; on hitc Mean.Spheroid.Burst.Duration: key: 1 (active); 0 (inactive); on hitc Mean.Spheroid.Burst.ISI: key: 1 (active); 0 (inactive); on hitc Mean.Spheroid.Burst.Peak.Firing.Rate: key: 1 (active); 0 (inactive); on hitc Mean.Spheroid.Firing.Rate: key: 1 (active); 0 (inactive); on hitc Mean.Spheroid.IBI: key: 1 (active); 0 (inactive); on hitc Mean.Spheroid.Nonburst.ISI: key: 1 (active); 0 (inactive); on hitc Mean.Spheroid.Spikes.per.Burst.per.Electrode: key: 1 (active); 0 (inactive); on hitc Mean.Spheroid.Spikes.per.Burst: key: 1 (active); 0 (inactive); on hitc Spheroid.Burst.Frequency: key: 1 (active); 0 (inactive); on hitc Spheroid.Spike.Amplitude.90th.Percentile: key: 1 (active); 0 (inactive)
Experimental: A volume of 1 ml of Tergazyme (1% solution in deionized water) was added to each well of the MaxTwo 6-Well Plate (MaxWell Biosystems) and incubated overnight under constant gyratory shaking (88 RPM) at 37 °C and 5% CO2. The next day, Tergazyme solution was removed, and plates were washed with distilled water and ethanol. After remaining ethanol was evaporated, wells were washed with PBS. Then, 200 µl of Poly-D-Lysine (Gibco, A38904 - 01) was added on top of the electrodes and incubated at 37 °C and 5% CO2 for 3 h (humidified). Poly-D-Lysine was then removed, and wells were coated with 100 µl of 0.1 mg/ml laminin coating solution (Sigma-Aldrich, L2020 - 1 mg) and incubated for 2 h at 37 ℃ and 5% CO2 (humidified). The laminin was removed after incubation. Using a 1 ml micropipette, 1 ml of medium containing BrainSpheres (7 weeks differentiated), approximately 25 BrainSpheres per ml, was plated on top of the HD-MEA chip (Fig. 1A). Afterwards, the plate was placed in an incubator at 37 °C and 5% CO2 and moved in circles to accumulate the BrainSpheres on top of the electrode area (Fig. 1A). The plate was kept in an incubator (humidified) for 2 days to allow attachment of the BrainSpheres with no gyratory shaking of the plates.
The MaxTwo high-density microelectrode array system (MaxWell Biosystems AG, Zurich, Switzerland) was used to measure neural activity with MaxTwo 6-well plates, where every well includes an integrated chip with 26,400 platinum electrodes arranged in an area of 3.85 × 2.10 mm^2 ([…]) (Muller et al. [2015]). The data were recorded and analyzed with the MaxLab Live Software (version 22.2.22). First, the MaxLab live ActivityScan Assay was used to identify the activity and positioning of the BrainSpheres on the array by scanning all the 26,400 electrodes in 29 configurations in a well (Assay Parameters: Configuration = Full; Recording time per configuration = 60 s (s)). The settings gain = 512, high-pass-filter (HPF): ~ 1 Hz and spike threshold = 5 X root-mean square (RMS) noise were used for all HD-MEA recordings. Circular regions of interest (ROI) were manually selected in the Activity Map where neuronal activity was apparent by an increased activity (Fig. 2). Over the course of the 13-day experiment, the same selected regions and electrodes were measured using the MaxLab Live Network Assay (600 s recording time).
A custom analysis framework was used to extract the MaxLab Live neuronal metrics for the individual BrainSpheres. For this, electrodes comprising a single ROI (i.e., individual BrainSphere; Fig. 2D) were grouped using distance-based clustering (fcluster method of Scipy library, Python 3.7) and neural metrics were calculated for the clustered electrodes for every ROI separately. Figure 2E presents a raster plot illustrating the activity associated with individual Regions of Interest (ROIs). […] Ten MaxLab Live neural metrics (endpoints) were evaluated from the MaxLab live ActivityScan and Network Assay in this study. See Table 3 for the endpoint definitions, tuned parameters, and activity type (general versus network connectivity).
The BrainSphere MEA assay measured changes in neural activity during a 13-day chemical exposure. The first recording day of the concentration–response screening protocol (day of exposure (DOE) 0) occurred after 7 weeks of BrainSphere differentiation, 48 h after plating on HD-MEA plates (Fig. 1B). The study included at least three biological replicates (one well per plate) from separate experiments (e.g., three different plates on three different days) and each well included multiple BrainSpheres which were considered technical replicates.

2D rat cortical cultures [2] = conditions: cited from earlier work; for hitc CCTE_Shafer_MEA_dev_active_electrodes_number / hitc CCTE_Shafer_MEA_dev_burst_duration_mean / hitc CCTE_Shafer_MEA_dev_burst_rate / hitc CCTE_Shafer_MEA_dev_bursting_electrodes_number / hitc CCTE_Shafer_MEA_dev_correlation_coefficient_mean / hitc CCTE_Shafer_MEA_dev_firing_rate_mean / hitc CCTE_Shafer_MEA_dev_inter_network_spike_interval_mean / hitc CCTE_Shafer_MEA_dev_interburst_interval_mean / hitc CCTE_Shafer_MEA_dev_mutual_information_norm / hitc CCTE_Shafer_MEA_dev_network_spike_duration_std / hitc CCTE_Shafer_MEA_dev_network_spike_number / hitc CCTE_Shafer_MEA_dev_network_spike_peak / hitc CCTE_Shafer_MEA_dev_per_burst_interspike_interval / hitc CCTE_Shafer_MEA_dev_per_burst_spike_percent / hitc CCTE_Shafer_MEA_dev_per_network_spike_spike_number_mean / hitc CCTE_Shafer_MEA_dev_per_network_spike_spike_percent / hitc CCTE_Shafer_MEA_dev_spike_duration_mean: rNFA mc5 hit call; for hitc CCTE_Shafer_MEA_dev_active_electrodes_number: aenm active_electrodes_number; for hitc CCTE_Shafer_MEA_dev_burst_duration_mean: aenm burst_duration_mean; for hitc CCTE_Shafer_MEA_dev_burst_rate: aenm burst_rate; for hitc CCTE_Shafer_MEA_dev_bursting_electrodes_number: aenm bursting_electrodes_number; for hitc CCTE_Shafer_MEA_dev_correlation_coefficient_mean: aenm correlation_coefficient_mean; for hitc CCTE_Shafer_MEA_dev_firing_rate_mean: aenm firing_rate_mean; for hitc CCTE_Shafer_MEA_dev_inter_network_spike_interval_mean: aenm inter_network_spike_interval_mean; for hitc CCTE_Shafer_MEA_dev_interburst_interval_mean: aenm interburst_interval_mean; for hitc CCTE_Shafer_MEA_dev_mutual_information_norm: aenm mutual_information_norm; for hitc CCTE_Shafer_MEA_dev_network_spike_duration_std: aenm network_spike_duration_std; for hitc CCTE_Shafer_MEA_dev_network_spike_number: aenm network_spike_number; for hitc CCTE_Shafer_MEA_dev_network_spike_peak: aenm network_spike_peak; for hitc CCTE_Shafer_MEA_dev_per_burst_interspike_interval: aenm per_burst_interspike_interval; for hitc CCTE_Shafer_MEA_dev_per_burst_spike_percent: aenm per_burst_spike_percent; for hitc CCTE_Shafer_MEA_dev_per_network_spike_spike_number_mean: aenm per_network_spike_spike_number_mean; for hitc CCTE_Shafer_MEA_dev_per_network_spike_spike_percent: aenm per_network_spike_spike_percent; for hitc CCTE_Shafer_MEA_dev_spike_duration_mean: aenm spike_duration_mean; for Bioactivity in the rNFA (in words): ref Brown et al. [2016], Carstens et al. [2022], Frank et al. [2017b], Shafer et al. [2019], ToxCast invitrodb (v4.2)
2D rat cortical cultures [3] = conditions: rNFA mc5 hit call; cytotoxicity AlamarBlue; cited from earlier work
2D rat cortical cultures [4] = conditions: rNFA mc5 hit call; cytotoxicity LDH; cited from earlier work
[5] = read-out: BMD Mean.Spheroid.Burst.ISI
[6] = read-out: BMD Mean.Spheroid.Nonburst.ISI
[7] = read-out: ac50 Mean.Spheroid.Burst.Duration
[8] = read-out: ac50 Mean.Spheroid.Burst.ISI
[9] = read-out: ac50 Mean.Spheroid.Burst.Peak.Firing.Rate
[10] = read-out: ac50 Mean.Spheroid.IBI
[11] = read-out: ac50 Mean.Spheroid.Spikes.per.Burst
[12] = read-out: ac50 Mean.Spheroid.Spikes.per.Burst.per.Electrode
[13] = read-out: ac50 Spheroid.Spike.Amplitude.90th.Percentile
Wherever hitc CCTE Shafer MEA dev active electrodes number is given: key: 1 (active); 0 (inactive).
Wherever hitc CCTE Shafer MEA dev burst duration mean is given: key: 1 (active); 0 (inactive).
Wherever hitc CCTE Shafer MEA dev burst rate is given: key: 1 (active); 0 (inactive).
Wherever hitc CCTE Shafer MEA dev bursting electrodes number is given: key: 1 (active); 0 (inactive).
Wherever hitc CCTE Shafer MEA dev correlation coefficient mean is given: key: 1 (active); 0 (inactive).
Wherever hitc CCTE Shafer MEA dev firing rate mean is given: key: 1 (active); 0 (inactive).
Wherever hitc CCTE Shafer MEA dev inter network spike interval mean is given: key: 1 (active); 0 (inactive).
Wherever hitc CCTE Shafer MEA dev interburst interval mean is given: key: 1 (active); 0 (inactive).
Wherever hitc CCTE Shafer MEA dev mutual information norm is given: key: 1 (active); 0 (inactive).
Wherever hitc CCTE Shafer MEA dev network spike duration std is given: key: 1 (active); 0 (inactive).
Wherever hitc CCTE Shafer MEA dev network spike number is given: key: 1 (active); 0 (inactive).
Wherever hitc CCTE Shafer MEA dev network spike peak is given: key: 1 (active); 0 (inactive).
Wherever hitc CCTE Shafer MEA dev per burst interspike interval is given: key: 1 (active); 0 (inactive).
Wherever hitc CCTE Shafer MEA dev per burst spike percent is given: key: 1 (active); 0 (inactive).
Wherever hitc CCTE Shafer MEA dev per network spike spike number mean is given: key: 1 (active); 0 (inactive).
Wherever hitc CCTE Shafer MEA dev per network spike spike percent is given: key: 1 (active); 0 (inactive).
Wherever hitc CCTE Shafer MEA dev spike duration mean is given: key: 1 (active); 0 (inactive).

## CC(=O)Nc1ccc(O)cc1 [Acetaminophen]
[1]
  Bioactivity across the 10 MEA endpoints of the BrainSphere MEA assay (in words): inactive in both assays; also recorded: inactive across all endpoints; also recorded: inactivity across all metrics in both models
  Bioactivity trend over time for MFR, mean spike amplitude and burst frequency (qualitative): no clear chemical-dependent effects were observed
  Hits: 0
  Percent active: 0%
  hitc Mean.Spheroid.Burst.Duration: 0
  hitc Mean.Spheroid.Burst.ISI: 0
  hitc Mean.Spheroid.Burst.Peak.Firing.Rate: 0
  hitc Mean.Spheroid.Firing.Rate: 0
  hitc Mean.Spheroid.IBI: 0
  hitc Mean.Spheroid.Nonburst.ISI: 0
  hitc Mean.Spheroid.Spikes.per.Burst: 0
  hitc Mean.Spheroid.Spikes.per.Burst.per.Electrode: 0
  hitc Spheroid.Burst.Frequency: 0
  hitc Spheroid.Spike.Amplitude.90th.Percentile: 0
[1]; [5]
  EC (benchmark response 1.349 SD): 415 µM
[1]; [6]
  EC (benchmark response 1.349 SD): 163 µM
[1]; [7]
  AC50: 4700 nM
[1]; [8]
  AC50: 45000 nM
[1]; [9]
  AC50: 370 nM
[1]; [10]
  AC50: 1800 nM
[1]; [11]
  AC50: 6000 nM
[1]; [12]
  AC50: 390 nM
[1]; read-out: ac50 Spheroid.Burst.Frequency
  AC50: 610 nM
[1]; [13]
  AC50: 240 nM
2D rat cortical cultures [2]
  hitc CCTE_Shafer_MEA_dev_active_electrodes_number: 0
  hitc CCTE_Shafer_MEA_dev_burst_duration_mean: 0
  hitc CCTE_Shafer_MEA_dev_burst_rate: 0
  hitc CCTE_Shafer_MEA_dev_bursting_electrodes_number: 0
  hitc CCTE_Shafer_MEA_dev_correlation_coefficient_mean: 0
  hitc CCTE_Shafer_MEA_dev_firing_rate_mean: 0
  hitc CCTE_Shafer_MEA_dev_inter_network_spike_interval_mean: 0
  hitc CCTE_Shafer_MEA_dev_interburst_interval_mean: 0
  hitc CCTE_Shafer_MEA_dev_mutual_information_norm: 0
  hitc CCTE_Shafer_MEA_dev_network_spike_duration_std: 0
  hitc CCTE_Shafer_MEA_dev_network_spike_number: 0
  hitc CCTE_Shafer_MEA_dev_network_spike_peak: 0
  hitc CCTE_Shafer_MEA_dev_per_burst_interspike_interval: 0
  hitc CCTE_Shafer_MEA_dev_per_burst_spike_percent: 0
  hitc CCTE_Shafer_MEA_dev_per_network_spike_spike_number_mean: 0
  hitc CCTE_Shafer_MEA_dev_per_network_spike_spike_percent: 0
  hitc CCTE_Shafer_MEA_dev_spike_duration_mean: 0
  Bioactivity in the rNFA (in words): inactivity across all metrics in both models
2D rat cortical cultures [2]; listed as acetaminophen
  Bioactivity in the rNFA (in words): inactive in both assays; also recorded: did not
2D rat cortical cultures [3]
  hitc CCTE_Shafer_MEA_dev_AB: 0
2D rat cortical cultures [4]
  hitc CCTE_Shafer_MEA_dev_LDH: 0

## CC1(C)S[C@@H]2[C@H](NC(=O)[C@H](N)c3ccc(O)cc3)C(=O)N2[C@H]1C(=O)O [Amoxicillin]
[1]
  BMD Spheroid.Burst.Frequency: 448 µM
  Bioactivity across the 10 MEA endpoints of the BrainSphere MEA assay (in words): inactive across all metrics; also recorded: inactivity across all metrics in both models
  Hits: 0
  Percent active: 0%
  hitc Mean.Spheroid.Burst.Duration: 0
  hitc Mean.Spheroid.Burst.ISI: 0
  hitc Mean.Spheroid.Burst.Peak.Firing.Rate: 0
  hitc Mean.Spheroid.Firing.Rate: 0
  hitc Mean.Spheroid.IBI: 0
  hitc Mean.Spheroid.Nonburst.ISI: 0
  hitc Mean.Spheroid.Spikes.per.Burst: 0
  hitc Mean.Spheroid.Spikes.per.Burst.per.Electrode: 0
  hitc Spheroid.Burst.Frequency: 0
  hitc Spheroid.Spike.Amplitude.90th.Percentile: 0
[1]; [5]
  EC (benchmark response 1.349 SD): 1440 µM
[1]; [6]
  EC (benchmark response 1.349 SD): 620 µM
[1]; [7]
  AC50: 220 nM
[1]; [8]
  AC50: 45000 nM
[1]; [9]
  AC50: 29 nM
[1]; [10]
  AC50: 63 nM
[1]; [11]
  AC50: 10 nM
[1]; [12]
  AC50: 36 nM
[1]; [13]
  AC50: 130 nM
2D rat cortical cultures [2]
  hitc CCTE_Shafer_MEA_dev_active_electrodes_number: 0
  hitc CCTE_Shafer_MEA_dev_burst_duration_mean: 0
  hitc CCTE_Shafer_MEA_dev_burst_rate: 0
  hitc CCTE_Shafer_MEA_dev_bursting_electrodes_number: 0
  hitc CCTE_Shafer_MEA_dev_correlation_coefficient_mean: 0
  hitc CCTE_Shafer_MEA_dev_firing_rate_mean: 0
  hitc CCTE_Shafer_MEA_dev_inter_network_spike_interval_mean: 0
  hitc CCTE_Shafer_MEA_dev_interburst_interval_mean: 0
  hitc CCTE_Shafer_MEA_dev_mutual_information_norm: 0
  hitc CCTE_Shafer_MEA_dev_network_spike_duration_std: 0
  hitc CCTE_Shafer_MEA_dev_network_spike_number: 0
  hitc CCTE_Shafer_MEA_dev_network_spike_peak: 0
  hitc CCTE_Shafer_MEA_dev_per_burst_interspike_interval: 0
  hitc CCTE_Shafer_MEA_dev_per_burst_spike_percent: 0
  hitc CCTE_Shafer_MEA_dev_per_network_spike_spike_number_mean: 0
  hitc CCTE_Shafer_MEA_dev_per_network_spike_spike_percent: 0
  hitc CCTE_Shafer_MEA_dev_spike_duration_mean: 0
  Bioactivity in the rNFA (in words): negative in the rNFA; also recorded: inactive in the rNFA; also recorded: inactivity across all metrics in both models
2D rat cortical cultures [3]
  hitc CCTE_Shafer_MEA_dev_AB: 0
2D rat cortical cultures [4]
  hitc CCTE_Shafer_MEA_dev_LDH: 0

Reference: publication PMC12198282, “Application of a high-density microelectrode array assay using a 3D human iPSC-derived brain microphysiological system model for in vitro neurotoxicity screening of environmental compounds” (Archives of Toxicology, 2025)
